Measured values published in patent publication US9125849B2, “TOMM34 peptides and vaccines including the same” (ONCOTHERAPY SCIENCE, INC., priority 2010, dated 2015).
Non-standard residues stand in square brackets, D forms with d. No end group written: not given here.

Experiments:
peptide-pulsed T2 cells [1] = assay: In vitro CTL induction, IFN-gamma ELISPOT assay; type: cell-based, human; details: CTLs induced with peptide-pulsed DCs from HLA-A*0201 positive donor, vs target cells not pulsed with peptide
Excerpt: Monocyte-derived dendritic cells (DCs) were used as antigen-presenting cells to induce cytotoxic T lymphocyte (CTL) responses against peptides presented on human leukocyte antigen (HLA). DCs were generated in vitro as described elsewhere (Nakahara S et al., Cancer Res 2003 Jul. 15, 63(14): 4112-8). Specifically, peripheral blood mononuclear cells isolated from a normal volunteer (HLA-A*0201 positive) by Ficoll-Paque plus (Pharmacia) solution were separated by adherence to a plastic tissue culture dish (Becton Dickinson) so as to enrich them as the monocyte fraction. The monocyte-enriched population was cultured in the presence of 1000 U/ml of granulocyte-macrophage colony-stimulating factor (R&D System) and 1000 U/ml of interleukin (IL)-4 (R&D System) in AIM-V Medium (Invitrogen) containing 2% heat-inactivated autologous serum (AS). After 7 days of culture, the cytokine-induced DCs were pulsed with 20 micro-g/ml of each of the synthesized peptides in the presence of 3 micro-g/ml of beta 2-microglobulin for 3 hr at 37 degrees C. in AIM-V Medium. The generated cells appeared to express DC-associated molecules, such as CD80, CD83, CD86 and HLA class II, on their cell surfaces (data not shown). These peptide-pulsed DCs were then inactivated by X ray-irradiated (20 Gy) and mixed at a 1:20 ratio with autologous CD8+ T cells, obtained by positive selection with CD8 Positive Isolation Kit (Dynal). These cultures were set up in 48-well plates (Corning); each well contained 1.5×10^4 peptide-pulsed DCs, 3×10^5 CD8+ T cells and 10 ng/ml of IL-7 (R&D System) in 0.5 ml of AIM-V/2% AS medium. Three days later, these cultures were supplemented with IL-2 (CHIRON) to a final concentration of 20 IU/ml. On day 7 and 14, the T cells were further stimulated with the autologous peptide-pulsed DCs. The DCs were prepared each time by the same way described above. CTL was tested against peptide-pulsed T2 cells after the 3rd round of peptide stimulation on day 21 (Tanaka H et al., Br J Cancer 2001 Jan. 5, 84(1): 94-9; Umano Y et al., Br J Cancer 2001 Apr. 20, 84(8): 1052-7; Uchida N et al., Clin Cancer Res 2004 Dec. 15, 10(24): 8577-86; Suda T et al., Cancer Sci 2006 May, 97(5): 411-9; Watanabe T et al., Cancer Sci 2005 August, 96(8): 498-506).
(§1) Peptide-pulsed T2 (1×10^4/well) was prepared as stimulator cells. Cultured cells in 48 wells were used as responder cells. IFN-gamma ELISPOT assay and IFN-gamma ELISA assay were performed under manufacture procedure.

peptide-pulsed T2 cells [2] = assay: CTL line activity, IFN-gamma ELISA; type: cell-based, human; details: CTL line stimulated with peptide; target cells pulsed with peptide vs without peptide pulse
Method: CTLs were expanded in culture using the method similar to the one described by Riddell et al. (Walter E A et al., N Engl J Med 1995 Oct. 19, 333(16): 1038-44; Riddell S R et al., Nat Med 1996 February, 2(2): 216-23). A total of 5×10^4 CTLs were suspended in 25 ml of AIM-V/5% AS medium with 2 kinds of human B-lymphoblastoid cell lines, inactivated by Mitomycin C, in the presence of 40 ng/ml of anti-CD3 monoclonal antibody (Pharmingen). One day after initiating the cultures, 120 IU/ml of IL-2 were added to the cultures. The cultures were fed with fresh AIM-V/5% AS medium containing 30 IU/ml of IL-2 on days 5, 8 and 11 (Tanaka H et al., Br J Cancer 2001 Jan. 5, 84(1): 94-9; Umano Y et al., Br J Cancer 2001 Apr. 20, 84(8): 1052-7; Uchida N et al., Clin Cancer Res 2004 Dec. 15, 10(24): 8577-86; Suda T et al., Cancer Sci 2006 May, 97(5): 411-9; Watanabe T et al., Cancer Sci 2005 August, 96(8): 498-506).
as §1

peptide-pulsed T2 cells [3] = assay: CTL clone activity, IFN-gamma ELISA; type: cell-based, human; details: CTL clone established by limiting dilution from the CTL line; target cells pulsed with peptide; listed as TOMM34-A02-9-30
Method: The dilutions were made to have 0.3, 1, and 3 CTLs/well in 96 round-bottomed micro titer plate (Nalge Nunc International). CTLs were cultured with 1×10^4 cells/well of 2 kinds of human B-lymphoblastoid cell lines, 30 ng/ml of anti-CD3 antibody, and 125 U/ml of IL-2 in a total of […] of AIM-V Medium containing 5% AS. 50 micro-1/well of IL-2 were added to the medium 10 days later so to reach a final concentration of 125 U/ml IL-2. CTL activity was tested on the 14th day, and CTL clones were expanded using the same method as described above (Uchida N et al., Clin Cancer Res 2004 Dec. 15, 10(24): 8577-86; Suda T et al., Cancer Sci 2006 May, 97(5): 411-9; Watanabe T et al., Cancer Sci 2005 August, 96(8): 498-506).
as §1

[4] = test system: COS7 cells transfected with both TOMM34 and HLA-A*0201; assay: Specific CTL activity against target cells expressing TOMM34 and HLA-A*0201; type: cell-based, African green monkey; details: COS7 cells expressing both TOMM34 and HLA-A*0201; listed as TOMM34-A02-9-30
Excerpt: (§2) The cDNA encoding an open reading frame of target genes or HLA-A*0201 was amplified by PCR. The PCR-amplified product was cloned into expression vector. The plasmids were transfected into COS7, which is the target genes and HLA-A*0201-null cell line, using lipofectamine 2000 (Invitrogen) according to the manufacturer's recommended procedures. After 2 days from transfection, the transfected cells were harvested with versene (Invitrogen) and used as the stimulator cells (5×10^4 cells/well) for CTL activity assay.
(§3) The established CTL line raised against TOMM34-A02-9-30 (SEQ ID NO: 1) peptide was examined for the ability to recognize target cells that express TOMM34 and HLA-A*0201 molecule. COS7 cells transfected with both the full length of TOMM34 and HLA-A*0201 gene (a specific model for the target cells that express TOMM34 and HLA-A*0201 gene) were prepared as stimulator cells, and COS7 cells transfected with either full length of TOMM34 or HLA-A*0201 were used as the controls.

[5] = test system: COS7 cells transfected with either full length of TOMM34 or HLA-A*0201; assay: Specific CTL activity against control target cells; type: cell-based, African green monkey; details: control COS7 cells expressing either HLA-A*0201 or TOMM34
Excerpt: as §2, §3

Substance: ALYGRALRV [SEQ ID NO: 1]
- peptide specific CTL activity (IFN-gamma production) by IFN-gamma ELISPOT (peptide-pulsed T2 cells [1]): potent IFN-gamma production
- IFN-gamma production of the CTL line by IFN-gamma ELISA (peptide-pulsed T2 cells [2]): potent IFN-gamma production
- IFN-gamma production of the CTL clone by IFN-gamma ELISA (peptide-pulsed T2 cells [3]): potent IFN-gamma production
- specific CTL activity of the CTL line [4]: potent CTL activity
- specific CTL activity of the CTL line [5]: no significant specific CTL activity was detected

Substance: ALYGrALRVL (ALYG[code r]ALRVL; not fully specified; printed as ALYGrALRVL) [SEQ ID NO: 31]
- peptide specific CTL activity (IFN-gamma production) by IFN-gamma ELISPOT (peptide-pulsed T2 cells [1]): potent IFN-gamma production

Substance: KLPSiPLVPV (KLPS[code i]PLVPV; not fully specified; printed as KLPSiPLVPV) [SEQ ID NO: 21]
- peptide specific CTL activity (IFN-gamma production) by IFN-gamma ELISPOT (peptide-pulsed T2 cells [1]; listed as TOMM34-A02-10-143): specific IFN-gamma production was not observed

Substance: LLCSNLESA [SEQ ID NO: 5]
- peptide specific CTL activity (IFN-gamma production) by IFN-gamma ELISPOT (peptide-pulsed T2 cells [1]): potent IFN-gamma production

Substance: LLCSnLESAT (LLCS[code n]LESAT; not fully specified; printed as LLCSnLESAT) [SEQ ID NO: 32]
- peptide specific CTL activity (IFN-gamma production) by IFN-gamma ELISPOT (peptide-pulsed T2 cells [1]): potent IFN-gamma production
